Laboratory results taken from patent US6083974A, “Benzothiophenecarboxamide derivatives and PGD2 antagonists comprising them” (Shionogi & Co., Ltd., priority 1996, dated 2000).

Tests used:
[1] = target: T1, PGD2 receptor (Homo sapiens, UniProt Q13258); assay: Binding to PGD2 Receptor (inhibition of [3H]PGD2 binding to human platelet membrane fraction); conditions: human platelet membrane fraction (0.1 mg), 5 nM [3H]PGD2, pH 7.4, 4° C., 90 min
T1 construct: A suspension adjusted to contain platelet at a final concentration of; endogenous in cells; host or cells: washed human platelets from peripheral blood of a healthy volunteer
T1 sequence (Q13258 1-359): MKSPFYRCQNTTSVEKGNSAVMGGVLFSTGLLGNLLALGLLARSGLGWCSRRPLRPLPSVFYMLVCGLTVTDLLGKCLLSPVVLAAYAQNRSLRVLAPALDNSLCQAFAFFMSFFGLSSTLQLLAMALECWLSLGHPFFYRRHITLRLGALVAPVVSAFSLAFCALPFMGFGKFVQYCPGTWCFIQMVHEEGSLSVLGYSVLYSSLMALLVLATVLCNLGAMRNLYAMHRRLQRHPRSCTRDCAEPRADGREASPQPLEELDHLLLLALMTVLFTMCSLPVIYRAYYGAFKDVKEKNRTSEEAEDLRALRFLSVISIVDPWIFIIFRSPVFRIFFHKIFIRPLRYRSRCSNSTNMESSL
Description: (1) Preparation of Human Platelet Membrane Fraction
Blood sample was obtained using a plastic syringe containing 3.8% sodium citrate from the vein of healthy volunteers (adult male and female), put into a plastic test tube and mixed gently by rotation. The sample was then centrifuged at 1800 rpm, 10 min at room temperature, and the supernatant containing PRP (platelet-rich plasma) was collected. The PRP was recentrifuged at2300 rpm, 22 min at room temperature to obtain platelets. The platelets were homogenized using a homogenizer (Ultra-Turrax) followed by centrifugation 3 times at 20,000 rpm, 10 min at 4° C. to obtain a platelet membrane fraction. After protein determination, the membrane fraction was adjusted to 2 mg/ml and preserved in a refrigerator at -80° C. until use.
(2) Binding to PGD2 Receptor
To a binding-reaction solution (50 mM Tris/HCl, pH 7.4, 5 mM MgCl2) (0.2 ml) were added to the human platelet membrane fraction (0.1 mg) and 5 nM [^3 H]PGD2 (115 Ci/mmol), and reacted at 4° C. for 90 min. After the reaction completed, the reaction mixture was filtered through a glass fiber filter paper, washed several times with cooled saline, and measured the radioactivity retained on the filter paper. The specific binding was calculated by subtracting the non-specific binding (the binding in the presence of 10 μM PGD2) from the total binding. The inhibitory activity of each compound was expressed as the concentration required for 50% inhibition (IC50), which was determined by depicting a substitution curve by plotting the binding ratio (%) in the presence of each compound, where the binding ratio in the absence of a test compound is 100%.

[2] = target: T1, PGD2 receptor; assay: Antagonistic activity against PGD2 receptor using human platelet (inhibition of PGD2-induced cAMP increase); type: cell-based; conditions: human washed platelets, 0.1 μM PGD2, 3-isobutyl-1-methylxanthine 0.5 mM, 37° C.; read-out: IC50, inhibition of cAMP increased by PGD2
Description: Evaluation of Antagonistic Activity Against PGD2 Receptor Using Human Platelet
Peripheral blood was obtained from a healthy volunteer using a syringe in which 1/9 volume of citric acid/dextrose solution has been previously added. The syringe was subjected to centrifugation at 180 g for 10 min to obtain the supernatant (PRP:platelet rich plasma). the resultant PRP was washed 3 times with a washing buffer and the number of platelet was counted with a micro cell counter. A suspension adjusted to contain platelet at a final concentration of 5×10^8 /ml was warmed at 37° C., and then subjected to the pre-treatment with 3-isobutyl-1-methylxanthine (0.5 mM) for 5 min. To the suspension was added a test compound diluted at various concentration. Ten-minute later, the reaction was induced by the addition of 0.1 μM PGD2 and , 2-minute later, stopped by the addition of hydrochloric acid. The platelet was destroyed with an ultrasonic homogenizer. After centrifugation, the cAMP in the supernatant was determined by radioummunoassay. PGD2 receptor antagonism of a drug was evaluated as follows. The inhibition rate regarding cAMP increased by the addition of PGD2 was determined at individual concentration, and then the concentration of the drug required for 50% inhibition (IC50) was calculated.

[3] = tested on: eosinophils; assay: Infiltration of eosinophils in the nasal cavity by an antigen challenge; type: in vivo; conditions: guinea pig, oral 1, 3 and 10 mg/kg, 1 hr before antigen challenge; marked columns not given
Description: Activity on Infiltration of Eosionophils in the Nasal Cavity by an Antigen Challenge
To a Hartley male guinea pig was injected intraperitoneally cyclophosphamide (30 mg/kg), after 2 day 1 ml of suspension containing 1 mg of ovalbumin (OVA) and 100 mg of aluminum hydroxide was injected intraperitoneally. After 3 weeks, 1 ml of mixture of OVA (10 μg) and aluminum hydroxide (100 mg) was intraperitoneally injected as additional immunization to sensitize systemically. After the lapse of 3 weeks, local sensitization, each 10 μl of 1% OVA solution was dripped in both nasal cavities four times at 2-4 day intervals. After 5-7 days from the final sensitization, nasal antigen challenge was performed by dripping 10 μl of 1% OVA solution to the guinea pigs in the both nasal cavity. Five hours after nasal challenge, the guinea pigs were exsanguinated under the anesthetization. The nasal airways were washed by infusing 10 ml of saline, and the washings were collected. The washing were centrifuged, the cell pellets were resuspended in 100 μl of saline, and the total cells were counted by the Turk stain. Then smear samples were prepared, and the cells were classified after the May-Grunwald-Giemsa stain. The eosinophil number was determined by multiplying the rate of eosinophils with the total cells. […]

[4] = tested on: Hartley male guinea pig; assay: Nasal blocking model (intranasal pressure after OVA antigen exposure); type: in vivo; conditions: oral 60 min before 3% OVA antigen exposure, dose not given
Description: Experiment Using Nasal Blocking Model
The method used for measuring the intranasal pressure for evaluating the anti-nasal blockage using guinea pigs is described below.
A 1% ovalbumin (OVA) solution was treated with an ultrasonic nebulizer to obtain an aerosol. Hartley male guinea pig was sensitized by inhaling twice the aerosol for 10 min at one-week interval. Seven-day after the sensitization, the guinea pig was exposed to an antigen to initiate the reaction. Briefly, the trachea was incised under the anesthesia with pentobarbital (30 mg/kg, i.p.) and cannulas were inserted at the pulmonary side was connected with an artificial respirator that provides 4 ml air 60 times/min. After arresting the spontaneous respiration of the guinea pig with Gallamin (2 mg/kg, i.v.), air was supplied to the snout side with an artificial respirator at the frequency of 70 times/min, and the flow rate of 4 ml air/time, and the atmospheric pressure required for the aeration was measured by the use of a transducer fitted at the branch. The measurement was used as a parameter of the nasal cavity resistance. The exposure of an antigen was carried out by generating aerosol of 3% OVA solution for 3 min between the respirator and the nasal cavity cannula. The test drug was administered orally 60 min before the antigen exposure. […]

Structure (SMILES)	IC50 [1] [nM]	IC50 [2] [nM]	inhibition of infiltration of eosinophils in the nasal cavity, significance versus vehicle (FIG. 1) [3]	Inhibitory Rate, intranasal pressure AUC for 30 min vs vehicle [4] [%]
CC1(C)[C@H]2C[C@H](C/C=C\CCCC(=O)O)[C@@H](NC(=O)c3csc4ccc(Br)cc34)[C@@H]1C2 [IA-a-2]	3.3	–	–	–
CC1(C)[C@H]2C[C@H](C/C=C\CCCC(=O)O)[C@@H](NC(=O)c3csc4ccc(O)cc34)[C@@H]1C2 [IA-a-5]	0.4	1.3	significantly different from vehicle at p<0.01	96
CC1(C)[C@H]2C[C@H](C/C=C\CCCC(=O)O)[C@@H](NC(=O)c3csc4cc(O)ccc34)[C@@H]1C2 [IA-a-7]	1.3	2.8	–	–
CC(=O)Oc1ccc2scc(C(=O)N[C@@H]3[C@@H](C/C=C\CCCC(=O)O)C[C@H]4C[C@@H]3C4(C)C)c2c1 [IA-a-9]	6.5	0.21	–	–
CC1(C)[C@H]2C[C@H](C/C=C/CCCC(=O)O)[C@@H](NC(=O)c3csc4ccc(O)cc34)[C@@H]1C2 [IA-a-17]	–	28	–	–
CC1(C)[C@H]2C[C@@H](C/C=C\CCCC(=O)O)[C@@H](NC(=O)c3csc4ccc(O)cc34)[C@@H]1C2 [IA-c-1]	–	55	–	–
CC1(C)[C@H]2C[C@@H](C/C=C/CCCC(=O)O)[C@@H](NC(=O)c3csc4ccc(O)cc34)[C@@H]1C2 [IA-c-2]	–	61	–	–
CC1(C)[C@H]2C[C@H](NC(=O)c3csc4ccccc34)[C@@H](C/C=C\CCCC(=O)O)[C@@H]1C2 [IB-a'-1]	–	41	–	–
CC1(C)[C@H]2C[C@@H](NC(=O)c3csc4ccc(O)cc34)[C@H](C/C=C\CCCC(=O)O)[C@@H]1C2 [IB-b'-3]	–	57	–	–
